Assay: CT evaluation of initial uptake and vascular distribution of PH-50 in normal rabbits
Format: in vivo, New Zealand white rabbits
Conditions: for Percent Uptake (%) Aorta / Percent Uptake (%) Brain / Percent Uptake (%) Cardiac / Percent Uptake (%) Liver / Percent Uptake (%) Portal Vein / Percent Uptake (%) Posterior Vena Cava: pre-treatment = 0
Description: One (1) mL of PH-50 injected as a bolus intravenously (IV) via the jugular vein (n=2); and three (3) mL with a five (5) minute infusion via IV by way of the jugular vein (n=2); using the criteria set forth below in Table 1:
The animals were anesthetized via mask using Isoflorene® prior to each study and maintained under anesthesia during CT scan procedures. The animals were recovered and were mobile and allowed to drink up to the 8 hour study. Digital Subtraction Angiography (DSA) was performed during initial injection (one IV bolus and one infusion), then each rabbit was immediately moved to CT. The CT was performed after the initial injection (one IV bolus and one infusion).
All CT imaging was performed using a GE® Sytec Sri Helical Scanner (Milwaukee, Wis.) and the images were stored as DICOM3 on GE® optical and CD-Rom medium. The CT imaging parameters for these studies were 1 mm consecutive slices at 120 kvp at 1.5 sec, 200 mA. All scans were done with a standard phantom placed beneath the animal. All CT scans performed were of the entire animal (rostral nasal area to pelvis). Contrast attenuation was measured in Hounsfield units (HU) and expressed as percent (%) uptake, taking into account the calibration from the phantom. The iodine concentration and iodine uptake were estimated post-injection from vascular, lung and liver tissues.

[1] = Rabbit No. 1151 (infusion), 0 min
[2] = Rabbit No. 1151 (infusion), 5 min
[3] = Rabbit No. 1151 (infusion), 15 min
[4] = Rabbit No. 1151 (infusion), 60 min
[5] = Rabbit No. 1151 (infusion), 480 min
[6] = Rabbit No. 1151, infusion 3 mL/5 min IV (150 mg/kg), 0 min post injection
[7] = Rabbit No. 1151, infusion 3 mL/5 min IV (150 mg/kg), 5 min post injection
[8] = Rabbit No. 1151, infusion 3 mL/5 min IV (150 mg/kg), 15 min post injection
[9] = Rabbit No. 1151, infusion 3 mL/5 min IV (150 mg/kg), 60 min post injection
[10] = Rabbit No. 1151, infusion 3 mL/5 min IV (150 mg/kg), 480 min post injection
[11] = Rabbit No. 1156 (bolus), 15 min
[12] = Rabbit No. 1156 (bolus), 60 min
[13] = Rabbit No. 1156 (bolus), 480 min
[14] = Rabbit No. 1156, bolus injection 1 mL IV (50 mg/kg), 0 min post injection
[15] = Rabbit No. 1156, bolus injection 1 mL IV (50 mg/kg), 5 min post injection
[16] = Rabbit No. 1156, bolus injection 1 mL IV (50 mg/kg), 15 min post injection
[17] = Rabbit No. 1156, bolus injection 1 mL IV (50 mg/kg), 60 min post injection
[18] = Rabbit No. 1156, bolus injection 1 mL IV (50 mg/kg), 480 min post injection
[19] = Rabbit No. 1159, bolus injection 1 mL IV (50 mg/kg), 15 min post injection
[20] = Rabbit No. 1159, bolus injection 1 mL IV (50 mg/kg), 60 min post injection
[21] = Rabbit No. 1159, bolus injection 1 mL IV (50 mg/kg), 480 min post injection
[22] = Rabbit No. 1166, infusion 3 mL/5 min IV (150 mg/kg), 15 min post injection
[23] = Rabbit No. 1166, infusion 3 mL/5 min IV (150 mg/kg), 60 min post injection
[24] = Rabbit No. 1166, infusion 3 mL/5 min IV (150 mg/kg), 480 min post injection

## CCOC(=O)CCCCCOC(=O)c1c(I)c(NC(C)=O)c(I)c(NC(C)=O)c1I [PH-50, 6-ethoxy-6-oxohexy-3,5-bis(acetylamino)-2,4,6-triiodobenzoate]
[1]
  Percent Uptake (%) Aorta: 44%
  Percent Uptake (%) Brain: 2%
  Percent Uptake (%) Cardiac: 33%
  Percent Uptake (%) Liver: 8%
  Percent Uptake (%) Portal Vein: 48%
  Percent Uptake (%) Posterior Vena Cava: 54%
[2]
  Percent Uptake (%) Aorta: 14%
  Percent Uptake (%) Brain: 17%
  Percent Uptake (%) Cardiac: 61%
  Percent Uptake (%) Liver: 32%
  Percent Uptake (%) Portal Vein: 91%
  Percent Uptake (%) Posterior Vena Cava: 44%
[3]
  Percent Uptake (%) Aorta: 37%
  Percent Uptake (%) Brain: 6%
  Percent Uptake (%) Cardiac: 4%
  Percent Uptake (%) Liver: 29%
  Percent Uptake (%) Portal Vein: 56%
  Percent Uptake (%) Posterior Vena Cava: 0%
[4]
  Percent Uptake (%) Aorta: 39%
  Percent Uptake (%) Brain: 14%
  Percent Uptake (%) Cardiac: 6%
  Percent Uptake (%) Liver: 21%
  Percent Uptake (%) Portal Vein: −5%
  Percent Uptake (%) Posterior Vena Cava: −43%
[5]
  Percent Uptake (%) Aorta: −62%
  Percent Uptake (%) Brain: 90.1%
  Percent Uptake (%) Cardiac: 0%
  Percent Uptake (%) Liver: −19%
  Percent Uptake (%) Portal Vein: 7%
  Percent Uptake (%) Posterior Vena Cava: −21%
[6]
  Hounsfield Units (HU) Aorta: 49.08 HU
  Hounsfield Units (HU) Brain: 44.89 HU
  Hounsfield Units (HU) Cardiac: 48.32 HU
  Hounsfield Units (HU) Liver: 93.08 HU
  Hounsfield Units (HU) Portal Vein: 54.03 HU
  Hounsfield Units (HU) Posterior Vena Cava: 73.00 HU
[7]
  Hounsfield Units (HU) Aorta: 38.85 HU
  Hounsfield Units (HU) Brain: 51.38 HU
  Hounsfield Units (HU) Cardiac: 58.67 HU
  Hounsfield Units (HU) Liver: 113.68 HU
  Hounsfield Units (HU) Portal Vein: 69.54 HU
  Hounsfield Units (HU) Posterior Vena Cava: 68.54 HU
[8]
  Hounsfield Units (HU) Aorta: 46.77 HU
  Hounsfield Units (HU) Brain: 46.75 HU
  Hounsfield Units (HU) Cardiac: 37.81 HU
  Hounsfield Units (HU) Liver: 111.22 HU
  Hounsfield Units (HU) Portal Vein: 56.85 HU
  Hounsfield Units (HU) Posterior Vena Cava: 47.46 HU
[9]
  Hounsfield Units (HU) Aorta: 47.62 HU
  Hounsfield Units (HU) Brain: 50.38 HU
  Hounsfield Units (HU) Cardiac: 38.49 HU
  Hounsfield Units (HU) Liver: 104.26 HU
  Hounsfield Units (HU) Portal Vein: 34.46 HU
  Hounsfield Units (HU) Posterior Vena Cava: 27.00 HU
[10]
  Hounsfield Units (HU) Aorta: 13.00 HU
  Hounsfield Units (HU) Brain: 34.37 HU
  Hounsfield Units (HU) Cardiac: 36.35 HU
  Hounsfield Units (HU) Liver: 69.57 HU
  Hounsfield Units (HU) Portal Vein: 38.81 HU
  Hounsfield Units (HU) Posterior Vena Cava: 37.72 HU
Rabbit No. 1156 (bolus), 0 min
  Percent Uptake (%) Aorta: 317.0%
  Percent Uptake (%) Brain: −8%
  Percent Uptake (%) Cardiac: 38%
  Percent Uptake (%) Liver: 13%
  Percent Uptake (%) Portal Vein: 24%
  Percent Uptake (%) Posterior Vena Cava: 168.0%
Rabbit No. 1156 (bolus), 5 min
  Percent Uptake (%) Aorta: 118%
  Percent Uptake (%) Brain: −15%
  Percent Uptake (%) Cardiac: 15%
  Percent Uptake (%) Liver: 26%
  Percent Uptake (%) Portal Vein: 38%
  Percent Uptake (%) Posterior Vena Cava: 253%
[11]
  Percent Uptake (%) Aorta: 162%
  Percent Uptake (%) Brain: −8%
  Percent Uptake (%) Cardiac: 12%
  Percent Uptake (%) Liver: 22%
  Percent Uptake (%) Portal Vein: 90%
  Percent Uptake (%) Posterior Vena Cava: 112%
[12]
  Percent Uptake (%) Aorta: 63%
  Percent Uptake (%) Brain: −3%
  Percent Uptake (%) Cardiac: 18%
  Percent Uptake (%) Liver: 19%
  Percent Uptake (%) Portal Vein: 108%
  Percent Uptake (%) Posterior Vena Cava: 33%
[13]
  Percent Uptake (%) Aorta: 23%
  Percent Uptake (%) Brain: −3%
  Percent Uptake (%) Cardiac: 4%
  Percent Uptake (%) Liver: −12%
  Percent Uptake (%) Portal Vein: −5%
  Percent Uptake (%) Posterior Vena Cava: 91%
[14]
  Hounsfield Units (HU) Aorta: 65.00 HU
  Hounsfield Units (HU) Brain: 29.00 HU
  Hounsfield Units (HU) Cardiac: 54.00 HU
  Hounsfield Units (HU) Liver: 85.00 HU
  Hounsfield Units (HU) Portal Vein: 52.00 HU
  Hounsfield Units (HU) Posterior Vena Cava: 51.00 HU
[15]
  Hounsfield Units (HU) Aorta: 34.00 HU
  Hounsfield Units (HU) Brain: 27.00 HU
  Hounsfield Units (HU) Cardiac: 45.00 HU
  Hounsfield Units (HU) Liver: 95.32 HU
  Hounsfield Units (HU) Portal Vein: 58.08 HU
  Hounsfield Units (HU) Posterior Vena Cava: 67.00 HU
[16]
  Hounsfield Units (HU) Aorta: 40.85 HU
  Hounsfield Units (HU) Brain: 29.03 HU
  Hounsfield Units (HU) Cardiac: 44.02 HU
  Hounsfield Units (HU) Liver: 91.73 HU
  Hounsfield Units (HU) Portal Vein: 79.65 HU
  Hounsfield Units (HU) Posterior Vena Cava: 40.31 HU
[17]
  Hounsfield Units (HU) Aorta: 25.38 HU
  Hounsfield Units (HU) Brain: 30.57 HU
  Hounsfield Units (HU) Cardiac: 46.52 HU
  Hounsfield Units (HU) Liver: 89.56 HU
  Hounsfield Units (HU) Portal Vein: 87.37 HU
  Hounsfield Units (HU) Posterior Vena Cava: 25.31 HU
[18]
  Hounsfield Units (HU) Aorta: 19.20 HU
  Hounsfield Units (HU) Brain: 30.50 HU
  Hounsfield Units (HU) Cardiac: 40.65 HU
  Hounsfield Units (HU) Liver: 66.15 HU
  Hounsfield Units (HU) Portal Vein: 39.73 HU
  Hounsfield Units (HU) Posterior Vena Cava: 36.24 HU
[19]
  Hounsfield Units (HU) Aorta: 43.80 HU
  Hounsfield Units (HU) Brain: 32.30 HU
  Hounsfield Units (HU) Cardiac: 30.13 HU
  Hounsfield Units (HU) Liver: 87.08 HU
  Hounsfield Units (HU) Portal Vein: 53.54 HU
  Hounsfield Units (HU) Posterior Vena Cava: 52.17 HU
[20]
  Hounsfield Units (HU) Aorta: 43.83 HU
  Hounsfield Units (HU) Brain: 34.39 HU
  Hounsfield Units (HU) Cardiac: 44.96 HU
  Hounsfield Units (HU) Liver: 94.17 HU
  Hounsfield Units (HU) Portal Vein: 89.92 HU
  Hounsfield Units (HU) Posterior Vena Cava: 65.48 HU
[21]
  Hounsfield Units (HU) Aorta: 21.00 HU
  Hounsfield Units (HU) Brain: 31.00 HU
  Hounsfield Units (HU) Cardiac: 33.73 HU
  Hounsfield Units (HU) Liver: 76.24 HU
  Hounsfield Units (HU) Portal Vein: 39.15 HU
  Hounsfield Units (HU) Posterior Vena Cava: 25.36 HU
[22]
  Hounsfield Units (HU) Aorta: 20.82 HU
  Hounsfield Units (HU) Brain: 27.15 HU
  Hounsfield Units (HU) Cardiac: 47.51 HU
  Hounsfield Units (HU) Liver: 117.99 HU
  Hounsfield Units (HU) Portal Vein: 63.85 HU
  Hounsfield Units (HU) Posterior Vena Cava: 43.09 HU
[23]
  Hounsfield Units (HU) Aorta: 23.08 HU
  Hounsfield Units (HU) Brain: 34.85 HU
  Hounsfield Units (HU) Cardiac: 37.66 HU
  Hounsfield Units (HU) Liver: 108.39 HU
  Hounsfield Units (HU) Portal Vein: 59.87 HU
  Hounsfield Units (HU) Posterior Vena Cava: 25.08 HU
[24]
  Hounsfield Units (HU) Aorta: 14.30 HU
  Hounsfield Units (HU) Brain: 38.90 HU
  Hounsfield Units (HU) Cardiac: 35.31 HU
  Hounsfield Units (HU) Liver: 63.20 HU
  Hounsfield Units (HU) Portal Vein: 42.92 HU
  Hounsfield Units (HU) Posterior Vena Cava: 39.35 HU
Normal rabbits, 1 mL bolus or 3 mL/5 min infusion IV
  adverse reactions to the compound: no adverse reactions
Normal rabbits, CT
  Hounsfield units in the liver post-injection: dramatic increase

From patent US20100055032A1, “METHODS FOR […] IMAGING USING NANOP[…] AGENTS” (NanoScan Imaging LLC, priority 2001, published 2010)
